Data reported in the NIST ThermoML archive (doi:10.1016/j.fluid.2010.08.022).

Conditions: 101.33 kPa; for speed of sound: Sing-around technique in a fixed-path interferometer; for mass density: Vibrating tube method

CCCCCCCC/C=C\CCCCCCCC(=O)O.NCCO [2-hydroxyethylammonium oleate]
Conditions | mass density [kg/m3] | speed of sound [m/s]
278.16 K, Crystal | 955.929 | 1635.4
278.41 K, Crystal | 955.757 | 1634.1
278.66 K, Crystal | 955.58 | 1632.7
278.9 K, Crystal | 955.409 | 1631.4
279.16 K, Crystal | 955.234 | 1630
279.41 K, Crystal | 955.057 | 1628.7
279.65 K, Crystal | 954.881 | 1627.4
279.91 K, Crystal | 954.704 | 1626.1
280.16 K, Crystal | 954.527 | 1624.7
280.41 K, Crystal | 954.349 | 1623.4
280.65 K, Crystal | 954.172 | 1622.1
280.91 K, Crystal | 953.991 | 1620.8
281.15 K, Crystal | 953.811 | 1619.5
281.41 K, Crystal | 953.63 | 1618.2
281.66 K, Crystal | 953.448 | 1616.8
281.91 K, Crystal | 953.266 | 1615.5
282.16 K, Crystal | 953.081 | 1614.2
282.41 K, Crystal | 952.898 | 1612.9
282.66 K, Crystal | 952.714 | 1611.6
282.91 K, Crystal | 952.526 | 1610.3
283.16 K, Crystal | 952.337 | 1608.9
283.41 K, Crystal | 952.15 | 1607.6
283.66 K, Crystal | 951.962 | 1606.3
283.91 K, Crystal | 951.769 | 1605
284.16 K, Crystal | 951.578 | 1603.6
284.41 K, Crystal | 951.383 | 1602.3
284.66 K, Crystal | 951.188 | 1600.8
284.91 K, Crystal | 950.989 | 1599.3
285.15 K, Crystal | 950.796 | 1597.7
285.4 K, Crystal | 950.604 | 1595.8
285.65 K, Crystal | 950.404 | 1592.8
285.9 K, Crystal | 950.405 | 1593.2
286.15 K, Liquid crystal of unknown type | 944.693 | 1554.4
286.4 K, Liquid crystal of unknown type | 944.221 | 1552.7
286.65 K, Liquid crystal of unknown type | 944.256 | 1553.3
286.9 K, Liquid crystal of unknown type | 943.886 | 1551.5
287.15 K, Liquid crystal of unknown type | 943.629 | 1550.2
287.4 K, Liquid crystal of unknown type | 943.416 | 1548.9
287.65 K, Liquid crystal of unknown type | 943.228 | 1547.7
287.9 K, Liquid crystal of unknown type | 943.055 | 1546.7
288.15 K, Liquid crystal of unknown type | 942.888 | 1545.7
288.4 K, Liquid crystal of unknown type | 942.726 | 1544.7
288.65 K, Liquid crystal of unknown type | 942.565 | 1543.7
288.9 K, Liquid crystal of unknown type | 942.405 | 1542.7
289.15 K, Liquid crystal of unknown type | 942.244 | 1541.8
289.4 K, Liquid crystal of unknown type | 942.083 | 1540.8
289.65 K, Liquid crystal of unknown type | 941.923 | 1539.9
289.9 K, Liquid crystal of unknown type | 941.764 | 1539
290.15 K, Liquid crystal of unknown type | 941.604 | 1538.1
290.4 K, Liquid crystal of unknown type | 941.445 | 1537.2
290.66 K, Liquid crystal of unknown type | 941.282 | 1536.2
290.9 K, Liquid crystal of unknown type | 941.124 | 1535.3
291.15 K, Liquid crystal of unknown type | 940.965 | 1534.4
291.4 K, Liquid crystal of unknown type | 940.805 | 1533.5
291.65 K, Liquid crystal of unknown type | 940.646 | 1532.6
291.91 K, Liquid crystal of unknown type | 940.485 | 1531.7
292.15 K, Liquid crystal of unknown type | 940.327 | 1530.8
292.41 K, Liquid crystal of unknown type | 940.167 | 1530
292.65 K, Liquid crystal of unknown type | 940.008 | 1529.1
292.9 K, Liquid crystal of unknown type | 939.848 | 1528.2
293.16 K, Liquid crystal of unknown type | 939.688 | 1527.3
293.4 K, Liquid crystal of unknown type | 939.529 | 1526.4
293.66 K, Liquid crystal of unknown type | 939.369 | 1525.5
293.9 K, Liquid crystal of unknown type | 939.211 | 1524.6
294.16 K, Liquid crystal of unknown type | 939.05 | 1523.7
294.41 K, Liquid crystal of unknown type | 938.892 | 1522.9
294.66 K, Liquid crystal of unknown type | 938.731 | 1522
294.91 K, Liquid crystal of unknown type | 938.572 | 1521.1
295.16 K, Liquid crystal of unknown type | 938.414 | 1520.2
295.41 K, Liquid crystal of unknown type | 938.256 | 1519.4
295.66 K, Liquid crystal of unknown type | 938.095 | 1518.5
295.91 K, Liquid crystal of unknown type | 937.936 | 1517.6
296.16 K, Liquid crystal of unknown type | 937.777 | 1516.8
296.41 K, Liquid crystal of unknown type | 937.618 | 1515.9
296.66 K, Liquid crystal of unknown type | 937.459 | 1515
296.91 K, Liquid crystal of unknown type | 937.301 | 1514.2
297.16 K, Liquid crystal of unknown type | 937.14 | 1513.3
297.41 K, Liquid crystal of unknown type | 936.981 | 1512.5
297.66 K, Liquid crystal of unknown type | 936.822 | 1511.6
297.91 K, Liquid crystal of unknown type | 936.662 | 1510.8
298.15 K, Liquid crystal of unknown type | 936.505 | 1509.9
298.41 K, Liquid crystal of unknown type | 936.345 | 1509
298.66 K, Liquid crystal of unknown type | 936.186 | 1508.2
298.91 K, Liquid crystal of unknown type | 936.026 | 1507.3
299.15 K, Liquid crystal of unknown type | 935.868 | 1506.5
299.41 K, Liquid crystal of unknown type | 935.709 | 1505.6
299.66 K, Liquid crystal of unknown type | 935.55 | 1504.8
299.91 K, Liquid crystal of unknown type | 935.39 | 1503.9
300.16 K, Liquid crystal of unknown type | 935.231 | 1503
300.41 K, Liquid crystal of unknown type | 935.072 | 1502.2
300.66 K, Liquid crystal of unknown type | 934.914 | 1501.3
300.9 K, Liquid crystal of unknown type | 934.755 | 1500.5
301.16 K, Liquid crystal of unknown type | 934.596 | 1499.7
301.41 K, Liquid crystal of unknown type | 934.436 | 1498.8
301.66 K, Liquid crystal of unknown type | 934.277 | 1498
301.91 K, Liquid crystal of unknown type | 934.118 | 1497.1
302.16 K, Liquid crystal of unknown type | 933.959 | 1496.3
302.41 K, Liquid crystal of unknown type | 933.802 | 1495.5
302.66 K, Liquid crystal of unknown type | 933.642 | 1494.6
302.91 K, Liquid crystal of unknown type | 933.483 | 1493.8
303.16 K, Liquid crystal of unknown type | 933.324 | 1492.9
303.4 K, Liquid crystal of unknown type | 933.167 | 1492.1
303.66 K, Liquid crystal of unknown type | 933.005 | 1491.3
303.91 K, Liquid crystal of unknown type | 932.846 | 1490.4
304.16 K, Liquid crystal of unknown type | 932.688 | 1489.6
304.41 K, Liquid crystal of unknown type | 932.529 | 1488.8
304.66 K, Liquid crystal of unknown type | 932.371 | 1488
304.91 K, Liquid crystal of unknown type | 932.212 | 1487.1
305.16 K, Liquid crystal of unknown type | 932.053 | 1486.3
305.41 K, Liquid crystal of unknown type | 931.892 | 1485.5
305.66 K, Liquid crystal of unknown type | 931.734 | 1484.7
305.9 K, Liquid crystal of unknown type | 931.576 | 1483.8
306.16 K, Liquid crystal of unknown type | 931.416 | 1483
306.4 K, Liquid crystal of unknown type | 931.258 | 1482.2
306.66 K, Liquid crystal of unknown type | 931.098 | 1481.4
306.91 K, Liquid crystal of unknown type | 930.939 | 1480.5
307.16 K, Liquid crystal of unknown type | 930.781 | 1479.7
307.41 K, Liquid crystal of unknown type | 930.622 | 1478.9
307.66 K, Liquid crystal of unknown type | 930.464 | 1478.1
307.91 K, Liquid crystal of unknown type | 930.304 | 1477.3
308.16 K, Liquid crystal of unknown type | 930.145 | 1476.4
308.41 K, Liquid crystal of unknown type | 929.987 | 1475.6
308.65 K, Liquid crystal of unknown type | 929.828 | 1474.8
308.91 K, Liquid crystal of unknown type | 929.668 | 1474
309.16 K, Liquid crystal of unknown type | 929.509 | 1473.2
309.4 K, Liquid crystal of unknown type | 929.35 | 1472.3
309.66 K, Liquid crystal of unknown type | 929.189 | 1471.5
309.91 K, Liquid crystal of unknown type | 929.032 | 1470.7
310.16 K, Liquid crystal of unknown type | 928.874 | 1469.9
310.41 K, Liquid crystal of unknown type | 928.713 | 1469
310.66 K, Liquid crystal of unknown type | 928.554 | 1468.2
310.91 K, Liquid crystal of unknown type | – | 1467.4
